Reference: the NIST ThermoML archive (doi:10.1016/j.jct.2017.07.009)

Conditions: 1410 K; Crystal; Calculated from knudsen effusion weight loss

Compound: [O-2].[Zn+2] [zinc(II) oxide]
- vapor or sublimation pressure: 0.00842 kPa
